Experimental data as given in patent publication US20260285846A1, “REV-ERB AGONISTS FOR TH17-MEDIATED INFLAMMATORY DISORDERS” (UNIVERSITY OF FLORID RESEARCH FOUNDATION, iNCORPORATED, priority 2021, published 2026).

target: REV-ERBα LBD (Homo sapiens, UniProt P20393, DEL324-422); test: biochemical; conditions: FRET assay; 6xHistag-REV-ERBα LBD with FITC-labeled SMRT corepressor peptide; read-out: REVERBα (Agonism of REV-ERBα, EC50)
Outline: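 TR-FRET corepressor recruitment: 4 nM His-tagged human REV-ERBα LBD (residues 281-614 Δ324-422, or 381-579), 1 nM Tb-anti-His antibody and 400 nM FITC-SMRT peptide in pH 7.4 phosphate buffer with DTT; ligands in triplicate, 2 h at 4° C. 520/495 nm ratio fitted to sigmoidal dose-response for EC50.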

Sequence of REV-ERBα LBD (P20393 with tags, fused parts or gaps DEL324-422): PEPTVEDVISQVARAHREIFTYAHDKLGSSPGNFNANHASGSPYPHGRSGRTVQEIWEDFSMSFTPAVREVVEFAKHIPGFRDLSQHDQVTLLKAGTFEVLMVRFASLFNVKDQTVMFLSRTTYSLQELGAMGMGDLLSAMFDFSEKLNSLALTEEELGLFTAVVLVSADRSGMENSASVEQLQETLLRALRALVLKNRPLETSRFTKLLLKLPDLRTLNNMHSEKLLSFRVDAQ
Sequence of REV-ERBα LBD (Q9Y618 2335-2356 partner limits assumed): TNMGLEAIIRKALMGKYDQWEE

Row | SMILES | EC50
1 | O=S(=O)(N[C@@H](c1cn(C2CCC2)c2nc(-c3cc(Cl)cnc3C(F)(F)F)c(F)cc12)C(F)F)C1CC1 [Compound 165, (S)—N-(1-(6-(5-chloro-2-(trifluoromethyl)pyridin-3-yl)-1-cyclobutyl-5-fluoro-1H-pyrrolo[2,3-b]pyridin-3-yl)-2,2-difluoroethyl)cyclopropanesulfonamide] | < 100 nM
2 | CC(C)(C)Cn1cc([C@H](NS(=O)(=O)C2CC2)C(F)F)c2ccc(-c3ccc(=O)[nH]c3C(F)(F)F)cc21 [Compound 166, (S)—N-(2,2-difluoro-1-(1-neopentyl-6-(6-oxo-2-(trifluoromethyl)-1,6-dihydropyridin-3-yl)-1H-indol-3-yl)ethyl)cyclopropanesulfonamide] | < 100 nM
3 | CC(C)(C)Cn1cc([C@H](NS(=O)(=O)C2CC2)C(F)F)c2ccc(-c3ccc(N)nc3C(F)(F)F)cc21 [Compound 167, (S)—N-(1-(6-(6-amino-2-(trifluoromethyl)pyridin-3-yl)-1-neopentyl-1H-indol-3-yl)-2,2-difluoroethyl)cyclopropanesulfonamide] | < 100 nM
4 | CN1CC(n2cc([C@H](NS(=O)(=O)C3CC3)C(F)F)c3cc(F)c(-c4ccc(F)cc4C(F)(F)F)cc32)C1 [Compound 168, (S)—N-(2,2-difluoro-1-(5-fluoro-6-(4-fluoro-2-(trifluoromethyl)phenyl)-1-(1-methylazetidin-3-yl)-1H-indol-3-yl)ethyl)cyclopropanesulfonamide] | 100 to 1000 nM
5 | CC(C)(C)Cn1cc([C@H](NS(=O)(=O)C2CC2)C(F)(F)F)c2cc(F)c(-c3cccnc3C(F)(F)F)cc21 [Compound 171, (S)—N-(2,2,2-trifluoro-1-(5-fluoro-1-neopentyl-6-(2-(trifluoromethyl)pyridin-3-yl)-1H-indol-3-yl)ethyl)cyclopropanesulfonamide] | < 100 nM
6 | O=c1ccc(-c2nc3c(cc2F)c([C@H](NS(=O)(=O)C2CC2)C(F)F)cn3C2CCC2)c(C(F)(F)F)[nH]1 [Compound 175, (S)—N-(1-(1-cyclobutyl-5-fluoro-6-(6-oxo-2-(trifluoromethyl)-1,6-dihydropyridin-3-yl)-1H-pyrrolo[2,3-b]pyridin-3-yl)-2,2-difluoroethyl)cyclopropanesulfonamide] | < 100 nM
7 | O=S(=O)(N[C@@H](c1cn(C2COC2)c2cc(-c3ccc(F)cc3C(F)(F)F)c(F)cc12)C(F)F)C1CC1 [Compound 176, (S)—N-(2,2-difluoro-1-(5-fluoro-6-(4-fluoro-2-(trifluoromethyl)phenyl)-1-(oxetan-3-yl)-1H-indol-3-yl)ethyl)cyclopropanesulfonamide] | 100 to 1000 nM
8 | O=S(=O)(N[C@@H](c1cn(C2COC2)c2nc(-c3ccc(F)cc3C(F)(F)F)c(F)cc12)C(F)F)C1CC1 [Compound 177, (S)—N-(2,2-difluoro-1-(5-fluoro-6-(4-fluoro-2-(trifluoromethyl)phenyl)-1-(oxetan-3-yl)-1H-pyrrolo[2,3-b]pyridin-3-yl)ethyl)cyclopropanesulfonamide] | 100 to 1000 nM
9 | N#CC1CC(n2cc([C@H](NS(=O)(=O)C3CC3)C(F)F)c3cc(F)c(-c4ccc(F)cc4C(F)(F)F)cc32)C1 (stereo partly drawn) [Compound 179, (S)—N-(1-(1-(3-cyanocyclobutyl)-5-fluoro-6-(4-fluoro-2-(trifluoromethyl)phenyl)-1H-indol-3-yl)-2,2-difluoroethyl)cyclopropanesulfonamide] | < 100 nM
10 | Nc1ccc(-c2nc3c(cc2F)c([C@H](NS(=O)(=O)C2CC2)C(F)F)cn3C2CCC2)c(C(F)(F)F)n1 [Compound 180, (S)—N-(1-(6-(6-amino-2-(trifluoromethyl)pyridin-3-yl)-1-cyclobutyl-5-fluoro-1H-pyrrolo[2,3-b]pyridin-3-yl)-2,2-difluoroethyl)cyclopropanesulfonamide] | < 100 nM
11 | O=S(=O)(N[C@@H](c1cn(C2CC(F)C2)c2cc(-c3ccc(F)cc3C(F)(F)F)c(F)cc12)C(F)F)C1CC1 (stereo partly drawn) [Compound 181, (S)—N-(2,2-difluoro-1-(5-fluoro-6-(4-fluoro-2-(trifluoromethyl)phenyl)-1-(3-fluorocyclobutyl)-1H-indol-3-yl)ethyl)cyclopropanesulfonamide] | < 100 nM

The next lines start with the values.

Row | EC50 | SMILES
12 | < 100 nM | CC(C)(C)Cn1cc([C@H](NS(=O)(=O)C2CC2)C(F)F)c2cc(F)c(-c3ccc(F)cc3C(F)(F)F)cc21 [Compound 164, (S)—N-(2,2-difluoro-1-(5-fluoro-6-(4-fluoro-2-(trifluoromethyl)phenyl)-1-neopentyl-1H-indol-3-yl)ethyl)cyclopropanesulfonamide]
13 | < 100 nM | CC(C)(C)Cn1cc([C@H](NS(=O)(=O)C2CC2)C(F)F)c2cc(F)c(-c3ccc(=O)[nH]c3C(F)(F)F)cc21 [Compound 169, (S)—N-(2,2-difluoro-1-(5-fluoro-1-neopentyl-6-(6-oxo-2-(trifluoromethyl)-1,6-dihydropyridin-3-yl)-1H-indol-3-yl)ethyl)cyclopropanesulfonamide]
14 | < 100 nM | CC(C)(C)Cn1cc([C@H](NS(=O)(=O)C2CCC2)C(F)F)c2cc(F)c(-c3ccc(F)cc3C(F)(F)F)cc21 [Compound 170, (S)—N-(2,2-difluoro-1-(5-fluoro-6-(4-fluoro-2-(trifluoromethyl)phenyl)-1-neopentyl-1H-indol-3-yl)ethyl)cyclobutanesulfonamide]
15 | < 100 nM | CC(C)(C)Cn1cc([C@H](NS(=O)(=O)C2CC2)C(F)F)c2cc(F)c(C3CCOCC3)cc21 [Compound 172, (S)—N-(2,2-difluoro-1-(5-fluoro-1-neopentyl-6-(tetrahydro-2H-pyran-4-yl)-1H-indol-3-yl)ethyl)cyclopropanesulfonamide]
16 | < 100 nM | CC(C)(C)Cn1cc([C@H](NS(=O)(=O)C2CC2)C(F)F)c2ccc(C3CCOCC3)cc21 [Compound 174, (S)—N-(2,2-difluoro-1-(1-neopentyl-6-(tetrahydro-2H-pyran-4-yl)-1H-indol-3-yl)ethyl)cyclopropanesulfonamide]
17 | < 100 nM | O=S(=O)(N[C@@H](c1cn(C2CC(F)C2)c2cc(-c3cc(F)cnc3C(F)(F)F)c(F)cc12)C(F)F)C1CC1 (stereo partly drawn) [Compound 182, (S)—N-(2,2-difluoro-1-(5-fluoro-6-(5-fluoro-2-(trifluoromethyl)pyridin-3-yl)-1-(3-fluorocyclobutyl)-1H-indol-3-yl)ethyl)cyclopropanesulfonamide]
